Literature values, collected in paper PMC7395068, “The evolution of strategies to minimise the risk of human drug-induced liver injury (DILI) in drug discovery and development” (Archives of Toxicology, 2020).
Where two headings read alike, the source gives them in different places. *1 amine or outer side, *2 acyl side, *3 side chain or, on linkers, in order; H or OH if unused. Where a SMILES comes first, the peptide text is derived from it. Bridges are numbered along the chain shown (N, C = ends). Roman numbers before positions name the chains, in order. [ ]: non-standard residue; d: D form. Actinocin(9to1) = Cc1c2oc3c(C)ccc(C(=O)[*:1])c3nc-2c(C(=O)[*:2])c(N)c1=O; NMeV = CN[C@H](C(=O)O)C(C)C; Sar = CNCC(=O)O

Legend:
[1] = cited from earlier work
[2] = cited from earlier work; remark: listed apart in the source
[3] = assignment in O'Brien 2006, ref O'Brien 2006

## Cl.N [ammonium chloride]
[1]; in vivo
  DILI +VE (5-8), DILI -VE (-4): -VE
  DILI severity category: vNo-DILI-Concern
[2]; in vivo
  In vivo DILI: -VE

## C[C@H]1[C@H](NC(=O)/C(=N\OC(C)(C)C(=O)O)c2csc(N)n2)C(=O)N1S(=O)(=O)O [aztreonam]
[1]; in vivo
  DILI +VE (5-8), DILI -VE (-4): -VE
  DILI severity category: Ambiguous DILI-concern
[2]; in vivo
  In vivo DILI: -VE

## Oc1ccc2c(c1)[C@@]13CCCC[C@@]1(O)[C@@H](C2)N(CC1CCC1)CC3 [butorphanol]
[1]; ref Chen 2016
  DILI +VE (5-8), DILI -VE (-4): -VE
  DILI severity category: vNo-DILI-Concern
[2]; […]
  In vivo DILI: -VE

## CCN1CCN(C(=O)N[C@@H](C(=O)N[C@@H]2C(=O)N3C(C(=O)O)=C(CSc4nnnn4C)CS[C@H]23)c2ccc(O)cc2)C(=O)C1=O [cefoperazone]
[1]; in vivo
  DILI +VE (5-8), DILI -VE (-4): +VE
  DILI severity category: vLess-DILI-Concern
[2]; in vivo
  In vivo DILI: -VE

## CO/N=C(\C(=O)N[C@@H]1C(=O)N2C(C(=O)O)=C(CSc3nc(=O)c(=O)[nH]n3C)CS[C@H]12)c1csc(N)n1 [ceftriaxone]
[1]; ref Chen 2016
  DILI +VE (5-8), DILI -VE (-4): +VE
  DILI severity category: vLess-DILI-Concern
[2]; […]
  In vivo DILI: -VE

## O=C(N[C@H](CO)[C@H](O)c1ccc([N+](=O)[O-])cc1)C(Cl)Cl [chloramphenicol]
[1]; in vivo
  DILI +VE (5-8), DILI -VE (-4): -VE
  DILI severity category: vNo-DILI-Concern
[2]; in vivo
  In vivo DILI: +VE

## O=C1CCc2cc(OCCCCc3nnnn3C3CCCCC3)ccc2N1 [cilostazol]
[1]; ref Chen 2016
  DILI +VE (5-8), DILI -VE (-4): -VE
  DILI severity category: Ambiguous DILI-concern
[2]; […]
  In vivo DILI: -VE

## Cc1c2oc3c(C)ccc(C(=O)N[C@@H]4C(=O)N[C@H](C(C)C)C(=O)N5CCC[C@H]5C(=O)N(C)CC(=O)N(C)[C@@H](C(C)C)C(=O)O[C@@H]4C)c3nc-2c(C(=O)N[C@@H]2C(=O)N[C@H](C(C)C)C(=O)N3CCC[C@H]3C(=O)N(C)CC(=O)N(C)[C@@H](C(C)C)C(=O)O[C@@H]2C)c(N)c1=O [dactinomycin] (I: T[dV]P[Sar][NMeV] / II: T[dV]P[Sar][NMeV]; ester I:1-I:C, II:1-II:C; linker I:N-II:N via Actinocin(9to1))
[1]; in vivo
  DILI +VE (5-8), DILI -VE (-4): +VE
  DILI severity category: vMost-DILI-Concern
[2]; in vivo
  In vivo DILI: +VE

## CN(CCOc1ccc(NS(C)(=O)=O)cc1)CCc1ccc(NS(C)(=O)=O)cc1 [dofetilide]
[1]; in vivo
  DILI +VE (5-8), DILI -VE (-4): -VE
  DILI severity category: vNo-DILI-Concern
[2]; in vivo
  In vivo DILI: -VE

## C[C@]12CC[C@@H]3c4ccc(O)cc4CC[C@H]3[C@@H]1CCC2=O [estrone]
[1]; in vivo
  DILI +VE (5-8), DILI -VE (-4): -VE
  DILI severity category: Ambiguous DILI-concern
[2]; in vivo
  In vivo DILI: +VE

## CC(O)(P(=O)(O)O)P(=O)(O)O [etidronic acid]
[1]; ref Chen 2016
  DILI +VE (5-8), DILI -VE (-4): -VE
  DILI severity category: vNo-DILI-Concern
[2]; […]
  In vivo DILI: -VE

## CC(C)n1c(/C=C/C(O)CC(O)CC(=O)O)c(-c2ccc(F)cc2)c2ccccc21 (stereo not drawn) [fluvastatin]
[1]; ref Chen 2016
  DILI +VE (5-8), DILI -VE (-4): +VE
  DILI severity category: vLess-DILI-Concern
[2]; ref O'Brien 2006
  In vivo DILI: -VE
[2]; ref Xu 2008
  In vivo DILI: -VE

## N[C@H]1C(O)O[C@H](CO)[C@@H](O)[C@@H]1O (stereo partly drawn) [glucosamine]
[2]; [3]
  In vivo DILI: +VE

## Cl [hydrochloric acid]
[2]; in vivo
  In vivo DILI: +VE

## COc1ccc2c3c1O[C@H]1C(=O)CC[C@H]4[C@@H](C2)N(C)CC[C@]314 [hydrocodone]
[2]; in vivo
  In vivo DILI: -VE

## C[C@H](CCC(=O)O)C[C@H](C)C[C@H](C)C(=O)/C=C(\O)[C@H](C)C[C@H](C)C/C=C/[C@@H](C)[C@@H](O)[C@@H](C)[C@@H](O)C[C@@H]1CC[C@@](C)([C@H]2CC[C@@](C)([C@@H](C)O)O2)O1 [ionomycin]
[2]; [3]
  In vivo DILI: +VE

## Nc1nnc(-c2cccc(Cl)c2Cl)c(N)n1 [lamotrigine]
[1]; ref Chen 2016
  DILI +VE (5-8), DILI -VE (-4): +VE
  DILI severity category: vMost-DILI-Concern
[2]; […]
  In vivo DILI: +VE

## CCNC(=O)[C@@H]1CCCN1C(=O)[C@H](CCCNC(=N)N)NC(=O)[C@H](CC(C)C)NC(=O)[C@@H](CC(C)C)NC(=O)[C@H](Cc1ccc(O)cc1)NC(=O)[C@H](CO)NC(=O)[C@H](Cc1c[nH]c2ccccc12)NC(=O)[C@H](Cc1c[nH]cn1)NC(=O)[C@@H]1CCC(=O)N1 [leuprolide]
[2]; in vivo
  In vivo DILI: -VE

## Cc1cccc(O)c1 [m-cresol]
[2]; in vivo
  In vivo DILI: +VE

## O=C(O)CC(=O)O [malonic acid]
[2]; in vivo
  In vivo DILI: +VE

## Cc1cccc(CN2CCN(C(c3ccccc3)c3ccc(Cl)cc3)CC2)c1 (stereo not drawn) [meclizine]
[1]; ref Chen 2016
  DILI +VE (5-8), DILI -VE (-4): -VE
  DILI severity category: vNo-DILI-Concern
[2]; […]
  In vivo DILI: -VE

## Cc1coc2c1CCC(C)C2 (stereo not drawn) [menthofuran]
[2]; […]
  In vivo DILI: +VE

## CCOC(=O)C1(c2ccccc2)CCN(C)CC1 [meperidine]
[1]; in vivo
  DILI +VE (5-8), DILI -VE (-4): -VE
  DILI severity category: vNo-DILI-Concern
[2]; in vivo
  In vivo DILI: -VE

## Cc1cccc(C)c1NC(=O)C1CCCCN1C (stereo not drawn) [mepivacaine]
[1]; ref Chen 2016
  DILI +VE (5-8), DILI -VE (-4): -VE
  DILI severity category: vNo-DILI-Concern
[2]; […]
  In vivo DILI: -VE

## C[C@@H](O)[C@H]1C(=O)N2C(C(=O)O)=C(S[C@@H]3CN[C@H](C(=O)N(C)C)C3)[C@H](C)[C@H]12 [meropenem]
[1]; ref Chen 2016
  DILI +VE (5-8), DILI -VE (-4): +VE
  DILI severity category: vLess-DILI-Concern
[2]; […]
  In vivo DILI: +VE

## C#C[C@]1(O)CC[C@H]2[C@@H]3CCc4cc(OC)ccc4[C@H]3CC[C@@]21C [mestranol]
[2]; […]
  In vivo DILI: -VE

## C[C@H](N)[C@H](O)c1cccc(O)c1 [metaraminol]
[2]; […]
  In vivo DILI: -VE

## CN[C@@H](C)Cc1ccccc1 [methamphetamine]
[1]; ref Chen 2016
  DILI +VE (5-8), DILI -VE (-4): -VE
  DILI severity category: vNo-DILI-Concern
[2]; […]
  In vivo DILI: -VE

## COc1ccccc1OCC(O)COC(N)=O (stereo not drawn) [methocarbamol]
[1]; ref Chen 2016
  DILI +VE (5-8), DILI -VE (-4): -VE
  DILI severity category: Ambiguous DILI-concern
[2]; […]
  In vivo DILI: -VE

## CBr [methyl bromide]
[2]; […]
  In vivo DILI: -VE

## C[C@](N)(Cc1ccc(O)cc1)C(=O)O [metyrosine]
[1]; ref Chen 2016
  DILI +VE (5-8), DILI -VE (-4): -VE
  DILI severity category: vNo-DILI-Concern
[2]; […]
  In vivo DILI: -VE

## COc1ccc(OC)c(C(O)CNC(=O)CN)c1 (stereo not drawn) [midodrine]
[1]; ref Chen 2016
  DILI +VE (5-8), DILI -VE (-4): -VE
  DILI severity category: vNo-DILI-Concern
[2]; […]
  In vivo DILI: -VE

## NC(=O)C[S+]([O-])C(c1ccccc1)c1ccccc1 (stereo not drawn) [modafinil]
[1]; ref Chen 2016
  DILI +VE (5-8), DILI -VE (-4): +VE
  DILI severity category: vLess-DILI-Concern
[2]; […]
  In vivo DILI: -VE

## CC[C@@]1([C@@H]2O[C@@H]([C@H]3O[C@@](O)(CO)[C@H](C)C[C@@H]3C)C[C@@H]2C)CC[C@H]([C@]2(C)CC[C@]3(C[C@H](O)[C@@H](C)[C@@H]([C@@H](C)[C@@H](OC)[C@H](C)C(=O)O)O3)O2)O1 [monensin]
[2]; in vivo
  In vivo DILI: +VE

## O=C(O)CC[N+](=O)[O-] [nitroproprionic acid]
[2]; [3]
  In vivo DILI: +VE

## CN(C)N=O [nitrosodimethylamine]
[2]; [3]
  In vivo DILI: +VE

## NC(=O)N1c2ccccc2CC(=O)c2ccccc21 [oxcarbazeptin]
[2]; ref Schadt 2015
  In vivo DILI: +VE

## CCCCC1C(=O)N(c2ccccc2)N(c2ccc(O)cc2)C1=O (stereo not drawn) [oxyphenbutazone]
[2]; […]
  In vivo DILI: +VE

## CC(N)C(O)c1ccccc1 (stereo not drawn) [phenylpropanolamine]
[2]; in vivo
  In vivo DILI: -VE

## COc1ccc(CN(CCN(C)C)c2ccccn2)cc1 [pyrilamine]
[2]; […]
  In vivo DILI: -VE

## CC(C)[C@@]1(O)[C@@H](OC(=O)c2ccc[nH]2)[C@@]2(O)[C@@]3(C)C[C@]4(O)O[C@@]5([C@H](O)[C@@H](C)CC[C@]35O)[C@@]2(O)[C@@]14C [ryanodine]
[2]; [3]
  In vivo DILI: +VE

## [Na+].[OH-] [sodium hydroxide]
[2]; [3]
  In vivo DILI: +VE

## COc1ncnc(NS(=O)(=O)c2ccc(N)cc2)c1OC [sulfadoxine]
[2]; […]
  In vivo DILI: -VE

## C[C@H](CCC(=O)NCCS(=O)(=O)O)[C@H]1CC[C@H]2[C@@H]3[C@H](O)C[C@@H]4C[C@H](O)CC[C@]4(C)[C@H]3C[C@H](O)[C@]12C [taurocholic]
[2]; [3]
  In vivo DILI: +VE

## C[C@H](CCC(=O)NCCS(=O)(=O)O)[C@H]1CC[C@H]2[C@@H]3CC[C@@H]4C[C@H](O)CC[C@]4(C)[C@H]3C[C@H](O)[C@]12C [taurodeoycholic]
[2]; [3]
  In vivo DILI: +VE

## C[C@H](CCC(=O)NCCS(=O)(=O)O)[C@H]1CC[C@H]2[C@@H]3CC[C@@H]4C[C@H](O)CC[C@]4(C)[C@H]3CC[C@]12C [taurolithocholic]
[2]; [3]
  In vivo DILI: +VE

## C[N+]1(C)[C@@H]2C[C@@H](OC(=O)C(O)(c3cccs3)c3cccs3)C[C@H]1[C@@H]1O[C@@H]12 [tiotropium]
[2]; in vivo
  In vivo DILI: -VE

## C[C@]12C=CC(=O)C=C1CC[C@H]1[C@@H]3C[C@@H](O)[C@](O)(C(=O)CO)[C@@]3(C)C[C@H](O)[C@@]12F [triamcinolone]
[2]; […]
  In vivo DILI: -VE

## ClC=C(Cl)Cl [trichloroethylene]
[2]; [3]
  In vivo DILI: +VE

## dichloroethylene
[2]; [3]
  In vivo DILI: +VE

## hemin
[2]; […]
  In vivo DILI: -VE
